Source: ChEMBL document CHEMBL3228010, “Potential antitumor agents. 29. Quantitative structure-activity relationships for the antileukemic bisquaternary ammonium heterocycles” (J Med Chem, 1979)
“And” between values parts separate entries of the source, which are not always exact repeats. Equal values may be shown once.

Legend:
[1] = test system: L1210; test: Antitumor activity against mouse L1210 cells […] in ip dosed C3H X DBA2 F1 hybrid mouse on day 0 and dosed at LD10 level once daily on days 1 to 5 assessed as increase in life span relative to control; type: functional
[2] = species: Bos taurus; test: Displacement of ethidium from calf thymus DNA by fluorimetric method
[3] = test system: Mus musculus; test: Toxicity in ip dosed C3H X DBA2 F1 hybrid mouse […] with mouse L1210 cells on day 0 and dosed once daily on days 1 to 5 measured after 50 days; type: organism-based; settings: in vivo, 1200 h
[4] = test system: L1210; test: Antitumor activity against mouse L1210 cells […] in ip dosed C3H X DBA2 F1 hybrid mouse on day 0 and dosed once daily on days 1 to 5 assessed as increase in life span relative to control; type: functional
[5] = Lipophilic-hydrophilic balance, Rm of the compound by partition chromatography; type: physicochemical
[6] = Displacement of ethidium from poly[d(A-T)]-poly[d(A-T)] DNA by fluorimetric method
[7] = Displacement of ethidium from poly[d(G-C)]-poly[d(G-C)] DNA (unknown origin) by fluorimetric method

Structure (SMILES) | log(ILSmax) [1] | C50 [2] | LD10 [3] [mg/kg] | D40 [4] [mg/kg] | Rm [5] | C50 [6] | C50 [7]
C[n+]1cccc(NC(=O)c2ccc(NC(=O)c3ccc(C(=O)Nc4ccc(NC(=N)N)cc4)cc3)cc2)c1.I.[I-] | 2.18 | 1.38 µM | 8 | 0.2 | -0.12 | 0.91 µM | 2.07 µM
C[n+]1cccc2cc(NC(=O)c3ccc(NC(=O)c4ccc(C(=O)Nc5ccc6c(ccc[n+]6C)c5)cc4)cc3)ccc21.Cc1ccc(S(=O)(=O)[O-])cc1.Cc1ccc(S(=O)(=O)[O-])cc1 | 2.04 | 0.37 µM | 100 | 39 | -0.7 | 0.28 µM | 0.36 µM
C[n+]1cc(-c2ccc(NC(=O)c3ccc(Nc4cc[n+](C)c5ccc(N)cc45)cc3N)cc2)c(N)nc1N.Cc1ccc(S(=O)(=O)[O-])cc1.Cc1ccc(S(=O)(=O)[O-])cc1 | 2.41 | 0.62 µM | 75 | 4.4 | -0.25 | 0.11 µM | 1.08 µM
Cc1c[n+](C)c2ccccc2c1Nc1ccc(C(=O)Nc2ccc(Nc3cc[n+](C)cc3)cc2)cc1.[Br-].[Br-] | <1.4 | 4.9 µM | 5 |  | 0.6 | 4.5 µM | 15 µM
C[n+]1ccc(Nc2ccc(NC(=O)c3ccc(Nc4cc[n+](C)c5ccc(Cl)cc45)cc3)cc2)cc1.Cc1ccc(S(=O)(=O)[O-])cc1.Cc1ccc(S(=O)(=O)[O-])cc1 | 1.81 | 0.79 µM | 40 | 14 | 0.57 | 0.24 µM | 1.76 µM
C[n+]1ccc(Nc2ccc(C(=O)Nc3ccc(Nc4cc[n+](C)c5ccc(N)cc45)cc3)c(N)c2)cc1.[Br-].[Br-] | 2.43 | 0.6 µM | 20 | 1 | -0.3 | 0.15 µM | 0.91 µM
Br.C/C(=N\NC(=N)N)c1ccc(NC(=O)c2ccc(Nc3cc[n+](C)c4ccccc34)cc2)cc1.[Br-] | 1.91 | 0.78 µM | 33 | 13 | -0.07 | 0.39 µM | 1.04 µM
CCC[n+]1ccc(Nc2ccc(NC(=O)c3ccc(Nc4cc[n+](CCC)c5ccc(N)cc45)cc3)cc2)cc1.[Br-].[Br-] | 2.07 | 0.68 µM | 10 | 1.8 | 0.46 | 0.1 µM | 1.1 µM
C[n+]1ccc(Nc2ccc(NC(=O)c3ccc(/C=C/C4=NCCCN4)cc3)cc2)c2cc(N)ccc21.Cc1ccc(S(=O)(=O)O)cc1.Cc1ccc(S(=O)(=O)[O-])cc1 | 1.9 | 0.65 µM | 7 | 2 | 0.17 | 0.35 µM | 0.87 µM
Cc1cc(Nc2ccc(NC(=O)c3ccc(C(=O)Nc4ccc(C(=O)Nc5ccc[n+](C)c5)cc4)cc3)cc2)nc(N)n1.I.[I-] | 2 | 0.39 µM | 19 | 10 | -0.3 | 0.27 µM | 0.49 µM
CCCC[n+]1ccc(Nc2ccc(NC(=O)c3ccc(Nc4cc[n+](CCCC)c5ccccc45)cc3)cc2)cc1.[Br-].[Br-] | <1.4 | 2.1 µM | 11 |  | 1.14 | 0.19 µM | 2.8 µM
C[n+]1ccc(Nc2ccc(NC(=O)c3ccc(Nc4nc[n+](C)c5ccc(N)cc45)cc3)cc2)cc1.Cc1ccc(S(=O)(=O)[O-])cc1.Cc1ccc(S(=O)(=O)[O-])cc1 | <1.4 | 0.88 µM | 3 |  | 0.13 | 0.5 µM | 1.7 µM
C[n+]1ccc(Nc2ccc(NC(=O)CCCCCC(=O)Nc3ccc(Nc4cc[n+](C)cc4)cc3)cc2)cc1.[Br-].[Br-] | <1.4 | 42 µM | 30 |  | 0.49 | 22 µM | 77 µM
CCCCC[n+]1cccc(NC(=O)c2ccc(NC(=O)c3ccc(C(=O)Nc4ccc(C(=O)Nc5ccc[n+](CCCCC)c5)cc4)cc3)cc2)c1.Cc1ccc(S(=O)(=O)[O-])cc1.Cc1ccc(S(=O)(=O)[O-])cc1 | <1.4 | 0.38 µM | 70 |  | 0.9 | 0.42 µM | 0.92 µM
C[n+]1ccc(Nc2ccc(C(=O)Nc3ccc(Nc4cc[n+](C)c5ccccc45)cc3N)cc2)cc1.[Br-].[Br-] | <1.4 | 1.87 µM | 7 |  | 0.35 | 0.64 µM | 2.05 µM
C[n+]1cccc(NC(=O)c2ccc(NC(=O)c3ccc(C(=O)Nc4ccc(C(=O)Nc5ccc[n+](C)c5)c(Cl)c4)cc3)cc2Cl)c1.Cc1ccc(S(=O)(=O)[O-])cc1.Cc1ccc(S(=O)(=O)[O-])cc1 | <1.4 | 1.4 µM | 26 |  | 0.2 | 0.99 µM | 2.1 µM

Structure (SMILES) | log(ILSmax) [1] | C50 [2] | LD10 [3] [mg/kg] | D40 [4] [mg/kg] | Rm [5] | C50 [6] | C50 [7]
C/C(=C(/C)c1ccc(Nc2cc[n+](C)c3ccc(N)cc23)cc1)c1ccc(Nc2cc[n+](C)cc2)cc1.[Cl-].[Cl-] | 1.53 | 1.7 µM | 5.5 |  | 0.96 | 0.9 µM | 2.6 µM
Cn1cc(NC(=O)c2cc(NC(=O)c3cc(NC=O)cn3C)cn2C)cc1C(=O)NCCC(=N)N |  | 0.68 µM |  |  |  | 0.07 µM | 2.4 µM
Cc1cc(C(=O)Nc2ccc(C(=O)Nc3ccc[n+](C)c3)cc2)c(C)cc1C(=O)Nc1ccc(C(=O)Nc2ccc[n+](C)c2)cc1.Cc1ccc(S(=O)(=O)[O-])cc1.Cc1ccc(S(=O)(=O)[O-])cc1 | 1.43 | 7.8 µM | 1.7 |  | 0.48 | 8.1 µM | 14 µM
C[n+]1ccc(Nc2ccc(NC(=O)c3ccc(C(=O)Nc4ccc(C(=O)Nc5ccc[n+](C)c5)cc4)cc3)cc2)cc1 |  | 0.63 µM and 0.84 µM |  |  |  | 0.34 µM and 0.44 µM | 0.97 µM and 1.35 µM
CCC[n+]1ccccc1-c1ccc(NC(=O)c2ccc(C(=O)Nc3ccc(-c4cccc[n+]4CCC)cc3)cc2)cc1.Cc1ccc(S(=O)(=O)[O-])cc1.Cc1ccc(S(=O)(=O)[O-])cc1 | <1.4 | 2.2 µM | 11 |  | 0.4 | 0.83 µM | 2.9 µM
Cc1cc(Nc2ccc(NC(=O)c3ccc(C(=O)Nc4ccc(C(=O)Nc5ccc[n+](C)c5)cc4)cc3)cc2)nc(N)[n+]1C.[I-].[I-] | <1.4 | 0.4 µM | 20 |  | -0.6 | 0.26 µM | 0.49 µM
CC[n+]1cccc(NC(=O)c2ccc(NC(=O)c3ccc(C(=O)Nc4ccc(C(=O)Nc5ccc[n+](CC)c5)c(OC)c4)cc3)cc2OC)c1.Cc1ccc(S(=O)(=O)[O-])cc1.Cc1ccc(S(=O)(=O)[O-])cc1 | 1.76 |  | 40 | 24 | 0.45 |  | 
CCCC[n+]1cccc2cc(NC(=O)/C=C/c3ccc(C(=O)Nc4ccc5c(ccc[n+]5CCCC)c4)cc3)ccc21.Cc1ccc(S(=O)(=O)[O-])cc1.Cc1ccc(S(=O)(=O)[O-])cc1 | 1.4 |  | 25 | 25 | 0.9 |  | 
CC[n+]1cccc2ccc(NC(=O)c3ccc(NC(=O)c4ccc(C(=O)Nc5ccc6ccc[n+](CC)c6c5)cc4)cc3)cc21.Cc1ccc(S(=O)(=O)[O-])cc1.Cc1ccc(S(=O)(=O)[O-])cc1 | 2 |  | 30 | 12 | -0.4 |  | 
CCC[n+]1ccc(Nc2ccc(NC(=O)c3ccc(Nc4cc[n+](CCC)c5ccccc45)cc3N)cc2)cc1.[I-].[I-] | 1.6 |  | 24 | 24 | 0.71 |  | 
CC[n+]1ccc(Nc2ccc(NC(=O)c3ccc(Nc4cc[n+](CC)c5ccc(N)cc45)cc3)cc2N)cc1.[I-].[I-] | 2.1 |  | 6.5 | 1.5 | 0.15 |  | 
CCC[n+]1cc(-c2ccc(NC(=O)c3ccc(C(=O)Nc4ccc(-c5c[n+](CCC)c(N)nc5N)cc4)cc3)cc2)c(N)nc1N.Cc1ccc(S(=O)(=O)[O-])cc1.Cc1ccc(S(=O)(=O)[O-])cc1 | 2.15 |  | 50 | 7 | -0.08 |  | 
C[n+]1cccc2cc(NC(=O)c3ccc(-c4ccc(-c5ccc(-c6ccc(C(=O)Nc7ccc8c(ccc[n+]8C)c7)cc6)cc5)cc4)cc3)ccc21.Cc1ccc(S(=O)(=O)[O-])cc1.Cc1ccc(S(=O)(=O)[O-])cc1 | 1.9 |  | 65 | 10 | -0.52 |  | 
C[n+]1ccc(Nc2ccc(NC(=O)CCCCCCC(=O)Nc3ccc(Nc4cc[n+](C)cc4)cc3)cc2)cc1.[Br-].[Br-] | <1.4 | 40 µM | 30 |  | 0.59 | 20 µM | 75 µM
Cc1cc(Nc2ccc(C(=O)Nc3ccc(Nc4cc[n+](C)cc4)cc3)c(N)c2)c2cc(N)ccc2[n+]1C.[I-].[I-] | 2.2 |  | 110 | 8.4 | 0.16 |  | 
